Assay results reported in US8952042B2, “FXR (NR1H4) binding and activity modulating compounds” (Phenex Pharmaceuticals AG, priority 2009, dated 2015).

Assays:
[1] = Pharmacokinetics in monkeys after oral administration 12 mg/kg; format: in vivo, Cynomolgus monkeys (Macacca mulatta); conditions: oral 12 mg/kg, Avg; for AUC(0-inf) / AUC(0-t) / Cmax / Tmax / half-life / MRT last / Vd/F: Cynomolgus, cynomolgus monkey, plasma; for MRT last: read-out: MRT0-t (converted); for Vd/F: read-out: Vz/F
Protocol: (§1) Compounds were applied perorally by gavage at 5 mg/kg each and by i.v. Injection at 1 mg/kg each to male 12 weeks old C57BI/6J or Sprague Dawley rats and plasma concentrations of the test items were determined by LC-MS/MS after time points as indicated. In the case of Cynomolgus monkeys ([…]), the dose was adjusted to 12 mg/kg p.o., no i.v. injection was given (FIG. 1a, 1b and Table 2).
(§2) A solution of 2.5 mg/mL of each test item was produced by diluting them in the vehicle, 0.5% Hydroxypropyl-Methylcellulose (w/v) in 20 mM phosphate buffered saline pH 7.4. The solutions were stirred overnight at room temperature and heated to 40° C. for 10 minutes, resulting in fully homogenous suspension. The application was performed by administrating the solution perorally to the mice, with an application volume of 5 mL/kg. For each time point three mice or rats were used. In case of the Cynomolgus monkeys blood samples were obtained by repeated vein puncture. Blood samples were treated with L1-heparin during collection procedure and stored on ice until centrifugation at 645 g (5 min, 4° C.). Plasma was harvested and kept at −20° C. until being assayed. To 50 μL of plasma sample 6 μL acetonitrile containing an internal standard was added. Samples were vigorously shaken and centrifuged for 10 minutes at 6000 g and 20° C. An aliquot of the particle-free supernatant was transferred to 200 μL sampler vials and subsequently subjected to LC MS/MS for quantification.

[2] = Pharmacokinetics in rat after intravenous administration 1 mg/kg; format: in vivo, Male Sprague Dawley Rat; conditions: for plasma levels as compared to GW4064: Male Sprague Dawley Rat, Table 3; for AUC(0-inf) / MRT last / Tmax / Vd / half-life / concentration at 0.083 hr / concentration at 0.25 hr / concentration at 0.5 hr / concentration at 1 hr / concentration at 2 hr / concentration at 4 hr / Cmax / AUC(0-t): male, Sprague Dawley, plasma; for AUC(0-inf) / MRT last / Tmax / Vd / half-life / concentration at 0.083 hr / concentration at 0.25 hr / concentration at 0.5 hr / concentration at 1 hr / concentration at 2 hr / concentration at 4 hr / AUC(0-t): iv; for AUC(0-inf) / MRT last / Tmax / Vd / half-life / concentration at 0.083 hr / concentration at 0.25 hr / concentration at 0.5 hr / concentration at 1 hr / concentration at 2 hr / concentration at 4 hr / Cmax / AUC(0-t) / AUC Extrapolated / CI: rat; for AUC(0-inf) / MRT last / Tmax / Vd / half-life / concentration at 0.083 hr / concentration at 0.25 hr / concentration at 0.5 hr / concentration at 1 hr / concentration at 2 hr / concentration at 4 hr / Cmax / AUC Extrapolated / CI: 1 mg/kg i.v.; for concentration at 0.5 hr: 0.50 hr; for Cmax: footnote: Co for Intravenous; for AUC(0-t): 1 mg/kg, read-out: #AUC(0-8)
Protocol: as §1, §2

[3] = Pharmacokinetics in rat after oral administration 5 mg/kg; format: in vivo, Male Sprague Dawley Rat; conditions: for AUC(0-inf) / Cmax / MRT last / Tmax / half-life / bioavailability / AUC(0-t): male, Sprague Dawley, plasma; for AUC(0-inf) / Cmax / MRT last / Tmax / half-life / AUC(0-t) / AUC Extrapolated / CI / Vd: oral 5 mg/kg; for bioavailability: oral 5 mg/kg vs i.v. 1 mg/kg, read-out: Absolute Bioavailability; for AUC(0-t): read-out: AUC(0-8)
Protocol: as §1, §2

[4] = Plasma levels in mice after single dose gavage 5 mg/kg; format: in vivo; conditions: C57/bl6 mice, FIG. 1c, 5 mg/kg gavage
Protocol: Data represent the mean of 3 individual mouse plasma measurements.
as §1
as §2, with “To 50 μL of plasma sample 6 μL acetonitrile containing an internal standard was added. Samples were vigorously shaken and centrifuged for 10 minutes at 6000 g and 20° C.” left out

AUC(0-inf) [1] [ng·h/mL] | AUC(0-t) [1] [ng·h/mL] | Cmax [1] [ng/mL] | Tmax [1] [h] | half-life [1] [h] | MRT last [1] [h] | Vd/F [1] [L/kg] | CLz/F [1] [mL/min/kg] | plasma levels as compared to GW4064 [2] | AUC(0-inf) [2] [ng·h/mL] | MRT last [2] [h] | Tmax [2] [min] | Vd [2] [L/kg] | half-life [2] [h] | concentration at 0.083 hr [2] [ng/mL] | concentration at 0.25 hr [2] [ng/mL] | concentration at 0.5 hr [2] [ng/mL] | concentration at 1 hr [2] [ng/mL] | concentration at 2 hr [2] [ng/mL] | concentration at 4 hr [2] [ng/mL] | SMILES | other results
30700 | 30500 | 7340 | 1.42 | 2.92 | 4.31 | 1.93 | 7 | substantially higher | 923 | 0.83 | 4.98 | 1.79 | 1.14 | 1190 | 749 | 451 | 202 | 78.9 | 44.5 | O=C(O)c1cccc(C2CC2c2ccc(OCc3c(-c4c(Cl)cccc4Cl)noc3C3CC3)cc2Cl)c1 (racemic) [Example 4, 3-(2-(2-chloro-4-((5-cyclopropyl-3-(2,6-dichlorophenyl)isoxazol-4-yl)methoxy)phenyl)-cyclopropyl)benzoic acid] | Cmax [2]: 1500 ng/mL; AUC(0-t) [2]: 850 ng·h/mL; AUC Extrapolated [2]: 7.94%; CI [2]: 18.0508 mL/min/kg; AUC(0-inf) [3]: 406 ng·h/mL; Cmax [3]: 93.1 ng/mL; MRT last [3]: 2.97 h; Tmax [3]: 0.5 h; half-life [3]: 4.08 h; bioavailability [3]: 8.8%; AUC(0-t) [3]: 287 ng·h/mL; AUC Extrapolated [3]: 33.93%; CI [3]: 205.0343 mL/min/kg; Vd [3]: 72.49139 L/kg; plasma levels as compared to GW4064 [4]: substantially higher
15100 | 14500 | 2220 | 2.92 | 4.54 | 6.11 | 5.19 | 13 | substantially higher | 440 | 0.78 | 4.98 | 4.82 | 1.47 | 661 | 359 | 174 | 84.6 | 37.7 | 19.2 | O=C(O)c1ccc(C2CC2c2ccc(OCc3c(-c4c(Cl)cccc4Cl)noc3C3CC3)cc2Cl)cc1 (racemic) [Example 12, 4-(2-(2-chloro-4-((5-cyclopropyl-3-(2,6-dichlorophenyl)isoxazol-4-yl)methoxy)phenyl)cyclopropyl)benzoic acid] | Cmax [2]: 895 ng/mL; AUC(0-t) [2]: 399 ng·h/mL; AUC Extrapolated [2]: 9.28%; CI [2]: 37.8772 mL/min/kg; AUC(0-inf) [3]: 681 ng·h/mL; Cmax [3]: 210 ng/mL; MRT last [3]: 2.42 h; Tmax [3]: 0.5 h; half-life [3]: 2.78 h; bioavailability [3]: 30.9%; AUC(0-t) [3]: 570 ng·h/mL; AUC Extrapolated [3]: 16.32%; CI [3]: 122.39 mL/min/kg; Vd [3]: 29.44442 L/kg; plasma levels as compared to GW4064 [4]: substantially higher
